In ChEMBL document CHEMBL1201862, “PubChem BioAssay data set” (2004):
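Protocol summary: plate cells (96-well), add compound at 5 concentrations, incubate 48 h, interpolate endpoints linearly. At the GI50, growth is halved.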 Activity calls are given as the source filed them. No stated cut-off is given here; in the data, active = GI50 up to about 1.1 µM and inactive = higher.

Experiments:
Test in all cases: inhibition of tumour cell growth, NCI panel, 48 h
[1] = tested on: EKVX
[2] = tested on: SF-268
[3] = tested on: SR
[4] = tested on: COLO 205
[5] = tested on: K562
[6] = tested on: LOX IMVI
[7] = tested on: NCI-H460
[8] = tested on: SW-620
[9] = tested on: HCC 2998
[10] = tested on: KM12
[11] = tested on: SF-539
[12] = tested on: MOLT-4
[13] = tested on: OVCAR-3
[14] = tested on: CAKI-1
[15] = tested on: HCT-15
[16] = tested on: NCI-H23
[17] = tested on: HOP-92
[18] = tested on: MDA-N
[19] = tested on: DU-145
[20] = tested on: BT-549

## COc1cc2c(c(OC)c1OC)C(=O)NCCC2
[1]
  GI50: > 100 µM (inactive)
[2]
  GI50: > 100 µM (inactive)
[3]
  GI50: > 100 µM (inactive)
[4]
  GI50: > 100 µM (inactive)
[5]
  GI50: > 100 µM (inactive)
[6]
  GI50: > 100 µM (inactive)
[7]
  GI50: > 100 µM (inactive)
[8]
  GI50: > 100 µM (inactive)
[9]
  GI50: > 92.9 µM (inactive)
[10]
  GI50: > 100 µM (inactive)
[11]
  GI50: > 100 µM (inactive)
[12]
  GI50: > 100 µM (inactive)
[13]
  GI50: > 100 µM (inactive)
[14]
  GI50: > 100 µM (inactive)
[15]
  GI50: > 100 µM
[16]
  GI50: > 100 µM (inactive)
[17]
  GI50: > 100 µM (inactive)

## COc1ccc(OC2(c3cc(OC)ccc3OC)OC(=O)c3ccccc32)cc1 (stereo not given)
[1]
  GI50: > 100 µM (inactive)
[2]
  GI50: > 100 µM (inactive)
[3]
  GI50: > 100 µM (inactive)
[4]
  GI50: > 100 µM (inactive)
[5]
  GI50: > 100 µM (inactive)
[6]
  GI50: > 100 µM (inactive)
[7]
  GI50: > 100 µM (inactive)
[8]
  GI50: > 100 µM (inactive)
[9]
  GI50: > 100 µM (inactive)
[10]
  GI50: > 100 µM (inactive)
[11]
  GI50: > 100 µM (inactive)
[12]
  GI50: > 100 µM (inactive)
[13]
  GI50: > 100 µM (inactive)
[14]
  GI50: > 100 µM (inactive)
[15]
  GI50: > 100 µM
[16]
  GI50: > 100 µM (inactive)
[17]
  GI50: > 100 µM (inactive)

## CCOC(OC1=C(C#N)CCCC1)C(C)[Se]c1ccccc1 (stereo not given)
[1]
  GI50: 28.7 µM (inactive)
[2]
  GI50: 18.5 µM (inactive)
[3]
  GI50: 20.7 µM (inactive)
[4]
  GI50: 39.7 µM (inactive)
[5]
  GI50: 62.1 µM (inactive)
[6]
  GI50: 16 µM (inactive)
[7]
  GI50: 54.1 µM (inactive)
[9]
  GI50: > 100 µM (inactive)
[10]
  GI50: > 100 µM (inactive)
[11]
  GI50: 18.1 µM (inactive)
[12]
  GI50: 29 µM (inactive)
[13]
  GI50: 31.6 µM (inactive)
[14]
  GI50: 65.2 µM (inactive)
[15]
  GI50: 36.8 µM
[16]
  GI50: 16 µM (inactive)
[17]
  GI50: 31.6 µM (inactive)

## CN1CCCCC(C#N)(c2ccccc2)CC1 (stereo not given)
[1]
  GI50: > 100 µM (inactive)
[2]
  GI50: > 100 µM (inactive)
[3]
  GI50: > 100 µM (inactive)
[4]
  GI50: > 100 µM (inactive)
[5]
  GI50: > 100 µM (inactive)
[7]
  GI50: > 100 µM (inactive)
[8]
  GI50: > 100 µM (inactive)
[9]
  GI50: > 100 µM (inactive)
[10]
  GI50: > 100 µM (inactive)
[12]
  GI50: > 100 µM (inactive)
[14]
  GI50: > 100 µM (inactive)
[15]
  GI50: > 100 µM
[16]
  GI50: > 100 µM (inactive)
[17]
  GI50: > 100 µM (inactive)
[18]
  GI50: > 100 µM (inactive)
[19]
  GI50: > 100 µM (inactive)

## C=C(C)[C@@]1(O[Si](C)(C)C)CCCC[C@@H]1CC(Sc1ccccc1)Sc1ccccc1
[1]
  GI50: 17.6 µM (inactive)
[2]
  GI50: 14.8 µM (inactive)
[3]
  GI50: 11.1 µM (inactive)
[4]
  GI50: 19.9 µM (inactive)
[5]
  GI50: 12.7 µM (inactive)
[6]
  GI50: 17.9 µM (inactive)
[7]
  GI50: 13.2 µM (inactive)
[8]
  GI50: 14.1 µM (inactive)
[9]
  GI50: 15.8 µM (inactive)
[10]
  GI50: 10.6 µM (inactive)
[11]
  GI50: 10.2 µM (inactive)
[12]
  GI50: 4.89 µM (inactive)
[13]
  GI50: 14.1 µM (inactive)
[14]
  GI50: 12.9 µM (inactive)
[15]
  GI50: 12.3 µM
[16]
  GI50: 13.4 µM (inactive)
[17]
  GI50: 12.7 µM (inactive)
[18]
  GI50: 15.4 µM (inactive)
[19]
  GI50: 15 µM (inactive)

## CC12CC(c3ccccc3O1)C(C(=O)Nc1ccc(Cl)cc1Cl)C(=O)N2 (stereo not given)
[1]
  GI50: 18.3 µM (inactive)
[2]
  GI50: 33.8 µM (inactive)
[4]
  GI50: 64.6 µM (inactive)
[5]
  GI50: 38.3 µM (inactive)
[6]
  GI50: 22.5 µM (inactive)
[7]
  GI50: 31.6 µM (inactive)
[8]
  GI50: 24.8 µM (inactive)
[9]
  GI50: 49.1 µM (inactive)
[10]
  GI50: > 100 µM (inactive)
[20]
  GI50: 89.3 µM (inactive)
[11]
  GI50: 45.4 µM (inactive)
[12]
  GI50: 19.1 µM (inactive)
[13]
  GI50: 38 µM (inactive)
[14]
  GI50: 45 µM (inactive)
[15]
  GI50: 54.2 µM
[16]
  GI50: 25.9 µM (inactive)
[18]
  GI50: > 100 µM (inactive)
[19]
  GI50: 27.6 µM (inactive)

## CC/C(=C\c1ccc(Cl)c(Cl)c1)[N+](=O)[O-]
[1]
  GI50: 2.76 µM (inactive)
[2]
  GI50: 2.03 µM (inactive)
[3]
  GI50: 0.948 µM (active)
[4]
  GI50: 1.72 µM (inactive)
[5]
  GI50: 2.13 µM (inactive)
[6]
  GI50: 0.405 µM (active)
[7]
  GI50: 2.42 µM (inactive)
[8]
  GI50: 3.03 µM (inactive)
[9]
  GI50: 1.7 µM (inactive)
[10]
  GI50: 2.96 µM (inactive)
[11]
  GI50: 1.89 µM (inactive)
[12]
  GI50: 0.236 µM (active)
[15]
  GI50: 1.66 µM
[16]
  GI50: 2.34 µM (inactive)
[19]
  GI50: 1.86 µM (inactive)

## O=C(O)C1=C(C(=O)Nc2ccc(NC(=O)C3=C(C(=O)O)C4C=CC3C4)cc2)C2C=CC1C2
[1]
  GI50: > 100 µM (inactive)
[2]
  GI50: > 100 µM (inactive)
[3]
  GI50: > 100 µM (inactive)
[4]
  GI50: > 100 µM (inactive)
[5]
  GI50: 54.5 µM (inactive)
[6]
  GI50: > 100 µM (inactive)
[7]
  GI50: > 100 µM (inactive)
[8]
  GI50: > 100 µM (inactive)
[9]
  GI50: > 100 µM (inactive)
[10]
  GI50: > 100 µM (inactive)
[11]
  GI50: > 100 µM (inactive)
[12]
  GI50: > 100 µM (inactive)
[13]
  GI50: > 100 µM (inactive)
[14]
  GI50: > 100 µM (inactive)
[15]
  GI50: > 100 µM
[16]
  GI50: > 100 µM (inactive)
[17]
  GI50: > 100 µM (inactive)
